Results from ChEMBL document CHEMBL1139394, “Piperidine dispiro-1,2,4-trioxane analogues” (Bioorg Med Chem Lett, 2008).

test system: Plasmodium falciparum; assay: Antimalarial activity against Plasmodium falciparum 3D7 infected human erythrocytes after 24 hrs by [3H]hypoxanthine uptake; format: functional, organism-based

SMILES | IC50 [nM]
O=C(OCC1c2ccccc2-c2ccccc21)N1CCC2(CC1)COC1(OO2)C2CC3CC(C2)CC1C3 (stereo not given) | 174
O=S(=O)(c1ccccc1)N1CCC2(CC1)OCC1(OO2)C2CC3CC(C2)CC1C3 (stereo not given) | > 1000
CCS(=O)(=O)N1CCC2(CC1)COC1(OO2)C2CC3CC(C2)CC1C3 (stereo not given) | 180
C1CC2(CCN1)COC1(OO2)C2CC3CC(C2)CC1C3 (stereo not given) | 121
O=S(=O)(c1ccccc1)N1CCC2(CC1)OOC1(OO2)C2CC3CC(C2)CC1C3 | 10.7
O=S(=O)(c1ccccc1)N1CCC2(CC1)OOC1(O2)C2CC3CC(C2)CC1C3 (stereo not given) | 6.22
CC(C)(C)OC(=O)N1CCC2(CC1)COC1(OO2)C2CC3CC(C2)CC1C3 (stereo not given) | 198
CC(=O)N1CCC2(CC1)COC1(OO2)C2CC3CC(C2)CC1C3 (stereo not given) | 183
O=S(=O)(c1ccccc1)N1CCC2(CC1)COC1(OO2)C2CC3CC(C2)CC1C3 (stereo not given) | 710
CO[C@H]1O[C@@H]2O[C@@]3(C)CC[C@H]4[C@H](C)CC[C@@H]([C@H]1C)[C@@]24OO3 [ARTEMETHER] | 1.26
